Laboratory results reported in patent publication US20100113390A1, “OLIGOSACCHARIDES DERIVED FROM FUCOIDAN” (SUNTORY HOLDINGS LIMITED, priority 2007, published 2010).

How the values were obtained:
α-glucosidase = test: Measurement of α-glucosidase activity (p-nitrophenyl-α-D-glucopyranoside substrate, A405 nm); type: biochemical, yeast; details: for α-glucosidase inhibitory activity (% inhibition): at 5 mg/ml (samples adjusted to 50 mg/ml H2O), duplicate, FIG. 29
Protocol: 1. 0.1 M sodium phosphate buffer (a mixture of 0.1 M NaH2PO4.2H2O and 0.1 M Na2HPO4.12H2O, adjusted to pH 7.0) was supplemented with 2 g/L bovine serum albumin (a product of Nacalai Tesque, Inc., Japan, F-V, pH 5.2, purity: 96%) and 0.2 g/L NaN3 (a product of Nacalai Tesque, Inc., Japan, reagent grade). As an enzyme solution, α-glucosidase (a product of Wako Pure Chemical Industries, Ltd., Japan, derived from yeast, 100 units/mg) was dissolved in the above buffer at 0.5 units/mg protein/ml (100 μg/20 ml). As a substrate solution, p-nitrophenyl-α-D-glucopyranoside (a product of Nacalai Tesque, Inc., Japan, reagent grade) was dissolved in the above buffer at 5 mM (7.525 mg/5 ml). 2. For use as samples, GF (I) purified in Example 3 was adjusted to 200 mg/ml H2O and diluted two-fold to give 6 dilutions. Using a 96-well microplate, the enzyme solution (45 μL) was added to each of the sample solutions (10 μL) and pre-incubated at 37° C. for 5 minutes. After addition of the substrate solution (45 μL), each sample was measured for absorbance A405 nm (A405 nm at 0 min) and, after incubation at 37° C. for 5 minutes, was then measured for absorbance A405 nm (A405 nm at 5 min). As a control, H2O was added in place of the samples and measured for absorbance. The difference in A405 nm from the control was calculated as % inhibition. Activity measurement was made in quadruplicate. 3. […] As comparative samples, X2 (xylobiose) and glucuronic acid (Sigma-Aldrich) were neutralized with NaOH and adjusted to 50 mg/ml H2O (calculated based on the amount of glucuronic acid). […] After addition of the substrate solution (45 μl), each of the samples was measured for absorbance A405 nm (A405 nm at 0 min) and, after incubation at 37° C. for 5 minutes, was then measured for absorbance A405 nm (A405 nm at 5 min). As a control, H2O was added in place of the samples, and the difference in A405 nm from the control was calculated as % inhibition. […]

[1] = molecular target: T1, porcine pancreatic lipase (Sus scrofa, UniProt P00591); test: Measurement of lipase inhibitory activity (4-methylumbelliferone oleic acid ester, fluorescence); type: biochemical; details: at 4 mg/ml final concentration, FIG. 30
T1 construct: purchased SIGMA
T1 sequence (P00591 1-450): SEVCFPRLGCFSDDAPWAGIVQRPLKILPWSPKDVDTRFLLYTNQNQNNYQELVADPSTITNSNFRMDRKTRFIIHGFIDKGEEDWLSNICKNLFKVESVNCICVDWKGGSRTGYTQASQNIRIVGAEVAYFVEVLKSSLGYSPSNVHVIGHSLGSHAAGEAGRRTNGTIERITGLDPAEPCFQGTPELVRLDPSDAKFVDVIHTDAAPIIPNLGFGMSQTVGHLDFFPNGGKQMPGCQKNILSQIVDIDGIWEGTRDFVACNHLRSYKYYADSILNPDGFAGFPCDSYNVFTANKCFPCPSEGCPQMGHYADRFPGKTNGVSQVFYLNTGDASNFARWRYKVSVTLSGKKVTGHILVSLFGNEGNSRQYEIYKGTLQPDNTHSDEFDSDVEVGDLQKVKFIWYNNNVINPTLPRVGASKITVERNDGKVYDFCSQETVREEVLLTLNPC
Protocol: 1. In a 96-well flat-bottomed plate, GF (I) prepared in Example 3, as well as the GSFaF (VII)-containing fraction and the GSF fraction containing (V) and GSFF (VI) prepared in Example 4 were each adjusted to give a final concentration of 4 mg/ml (25 μl), followed by addition of 50 μl buffer (130 mM Tris-HCl buffer (pH 8.0, containing 150 mM NaCl and 1.36 mM CaCl2)) and 25 μl 4-methylumbelliferone oleic acid ester (SIGMA, final concentration: 100 μM). The plate was allowed to stand for 30 minutes at room temperature. Then, lipase (porcine pancreatic lipase, SIGMA) was added in a volume of 50 μl (final concentration: 100 U/ml) to initiate the reaction. 2. After 30 minutes, 100 μl citrate buffer (pH 4.2) was added to stop the reaction. The fluorescence intensity of 4-methylumbelliferone generated by the reaction (excitation wavelength: 355 nm, fluorescence wavelength: 460 nm) was measured with a fluorescence plate reader (Fluoroskan Asent CF, Labsystems). 3. As a control, water was used in place of the samples. As a blank, water was used in place of the samples and buffer was used in place of lipase. The following equation was used to calculate lipase inhibitory activity. 4. Calculation equation
Lipase inhibitory activity (%)=100−(A−B)/(C−B)×100
A: fluorescence intensity in sample, B: fluorescence intensity in blank, C: fluorescence intensity in control

Row | SMILES | α-glucosidase inhibitory activity (% inhibition) (α-glucosidase) | α-glucosidase IC50 (α-glucosidase; GF (I) purified in Example 3, 6 two-fold dilutions, quadruplicate) | inhibition at 4000 µg/mL [1]
1 | OC1OC[C@@H](O[C@@H]2OC[C@@H](O)[C@H](O)[C@H]2O)[C@H](O)[C@H]1O (stereo partly shown) [X2, xylobiose] | 10.15% |  | 
2 | O=C(O)[C@H]1OC(O)[C@H](O)[C@@H](O)[C@@H]1O (stereo partly shown) [glucuronic acid] | 8% |  | 
3 | CC1OC(O)C(OC2OC(C(=O)O)C(O)C(O)C2O)C(O)C1O [GF (I), α-D-GlcA-(1→2)-L-Fuc] |  | 20.4 mg/mL | 81%
